Test results published in patent publication US20220009920A1 (GB005, Inc., priority 2020, published 2022).

Assays:
Experiment in all cases: Large panel kinase profiling
Format in all cases: biochemical
Settings in all cases: 1 μM test article, 1 mM ATP
[1] = target: T1, CDK2/A2 (Homo sapiens, UniProt P24941)
T1 construct: AssayQuant Technologies, Inc. (ran the panel)
Method in brief: (§1)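 With ATP fixed at 1 mM, each kinase was exposed to 1 μM compound in a PhosphoSens CSox-Sensor reaction. Sealed plates were incubated at 30° C. and read in kinetic mode.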

[2] = target: T2, HCK (Homo sapiens, UniProt P08631)
T2 construct: AssayQuant Technologies, Inc. (service provider)
T2 sequence (P08631 whole entry, species assumed): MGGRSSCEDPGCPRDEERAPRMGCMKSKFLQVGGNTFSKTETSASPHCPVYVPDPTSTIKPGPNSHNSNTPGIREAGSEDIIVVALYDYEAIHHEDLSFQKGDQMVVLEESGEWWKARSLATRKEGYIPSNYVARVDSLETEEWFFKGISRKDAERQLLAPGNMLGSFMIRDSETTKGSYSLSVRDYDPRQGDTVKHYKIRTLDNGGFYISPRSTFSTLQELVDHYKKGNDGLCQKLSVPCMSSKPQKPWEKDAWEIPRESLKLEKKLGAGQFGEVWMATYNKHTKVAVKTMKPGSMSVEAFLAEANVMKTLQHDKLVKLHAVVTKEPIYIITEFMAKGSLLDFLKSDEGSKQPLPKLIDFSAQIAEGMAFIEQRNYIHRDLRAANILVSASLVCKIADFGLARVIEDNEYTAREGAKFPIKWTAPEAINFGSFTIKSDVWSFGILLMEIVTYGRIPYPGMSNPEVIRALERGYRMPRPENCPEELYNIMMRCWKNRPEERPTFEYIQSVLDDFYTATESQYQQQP
Method in brief: as §1

[3] = target: T3, LATS1 (Homo sapiens, UniProt O95835)
T3 sequence (O95835 1-1130): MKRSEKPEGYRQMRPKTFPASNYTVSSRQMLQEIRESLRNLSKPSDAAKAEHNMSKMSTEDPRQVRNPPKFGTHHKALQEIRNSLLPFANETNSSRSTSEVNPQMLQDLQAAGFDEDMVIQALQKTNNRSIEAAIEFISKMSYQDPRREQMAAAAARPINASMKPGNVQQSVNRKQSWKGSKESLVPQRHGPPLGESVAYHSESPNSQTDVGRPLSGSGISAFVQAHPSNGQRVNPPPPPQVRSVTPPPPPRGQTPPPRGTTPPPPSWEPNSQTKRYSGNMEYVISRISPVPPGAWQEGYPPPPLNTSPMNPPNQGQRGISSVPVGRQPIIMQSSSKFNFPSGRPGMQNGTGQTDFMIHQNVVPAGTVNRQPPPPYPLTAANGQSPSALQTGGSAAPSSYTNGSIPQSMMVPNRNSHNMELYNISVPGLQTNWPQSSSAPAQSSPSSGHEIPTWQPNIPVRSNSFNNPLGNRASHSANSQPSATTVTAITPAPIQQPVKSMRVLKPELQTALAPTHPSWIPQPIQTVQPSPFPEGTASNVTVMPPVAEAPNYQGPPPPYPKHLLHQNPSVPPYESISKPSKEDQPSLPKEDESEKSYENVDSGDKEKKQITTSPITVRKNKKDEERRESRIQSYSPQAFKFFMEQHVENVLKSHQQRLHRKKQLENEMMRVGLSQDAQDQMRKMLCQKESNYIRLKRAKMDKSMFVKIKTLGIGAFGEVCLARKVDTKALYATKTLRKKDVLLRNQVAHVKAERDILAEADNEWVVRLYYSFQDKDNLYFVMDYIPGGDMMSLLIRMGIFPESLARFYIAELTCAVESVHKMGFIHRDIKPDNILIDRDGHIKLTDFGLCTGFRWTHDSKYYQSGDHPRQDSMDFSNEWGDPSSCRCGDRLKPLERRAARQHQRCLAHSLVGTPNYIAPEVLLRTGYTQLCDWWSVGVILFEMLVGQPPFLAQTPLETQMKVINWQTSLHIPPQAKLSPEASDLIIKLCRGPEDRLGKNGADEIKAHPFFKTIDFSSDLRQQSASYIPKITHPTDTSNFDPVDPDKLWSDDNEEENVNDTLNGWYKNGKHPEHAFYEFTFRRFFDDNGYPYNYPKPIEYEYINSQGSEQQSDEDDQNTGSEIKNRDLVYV
Method in brief: as §1

[4] = target: LRRK2 (Homo sapiens, UniProt Q5S007)
LRRK2, sequence (Q5S007 whole entry, species assumed): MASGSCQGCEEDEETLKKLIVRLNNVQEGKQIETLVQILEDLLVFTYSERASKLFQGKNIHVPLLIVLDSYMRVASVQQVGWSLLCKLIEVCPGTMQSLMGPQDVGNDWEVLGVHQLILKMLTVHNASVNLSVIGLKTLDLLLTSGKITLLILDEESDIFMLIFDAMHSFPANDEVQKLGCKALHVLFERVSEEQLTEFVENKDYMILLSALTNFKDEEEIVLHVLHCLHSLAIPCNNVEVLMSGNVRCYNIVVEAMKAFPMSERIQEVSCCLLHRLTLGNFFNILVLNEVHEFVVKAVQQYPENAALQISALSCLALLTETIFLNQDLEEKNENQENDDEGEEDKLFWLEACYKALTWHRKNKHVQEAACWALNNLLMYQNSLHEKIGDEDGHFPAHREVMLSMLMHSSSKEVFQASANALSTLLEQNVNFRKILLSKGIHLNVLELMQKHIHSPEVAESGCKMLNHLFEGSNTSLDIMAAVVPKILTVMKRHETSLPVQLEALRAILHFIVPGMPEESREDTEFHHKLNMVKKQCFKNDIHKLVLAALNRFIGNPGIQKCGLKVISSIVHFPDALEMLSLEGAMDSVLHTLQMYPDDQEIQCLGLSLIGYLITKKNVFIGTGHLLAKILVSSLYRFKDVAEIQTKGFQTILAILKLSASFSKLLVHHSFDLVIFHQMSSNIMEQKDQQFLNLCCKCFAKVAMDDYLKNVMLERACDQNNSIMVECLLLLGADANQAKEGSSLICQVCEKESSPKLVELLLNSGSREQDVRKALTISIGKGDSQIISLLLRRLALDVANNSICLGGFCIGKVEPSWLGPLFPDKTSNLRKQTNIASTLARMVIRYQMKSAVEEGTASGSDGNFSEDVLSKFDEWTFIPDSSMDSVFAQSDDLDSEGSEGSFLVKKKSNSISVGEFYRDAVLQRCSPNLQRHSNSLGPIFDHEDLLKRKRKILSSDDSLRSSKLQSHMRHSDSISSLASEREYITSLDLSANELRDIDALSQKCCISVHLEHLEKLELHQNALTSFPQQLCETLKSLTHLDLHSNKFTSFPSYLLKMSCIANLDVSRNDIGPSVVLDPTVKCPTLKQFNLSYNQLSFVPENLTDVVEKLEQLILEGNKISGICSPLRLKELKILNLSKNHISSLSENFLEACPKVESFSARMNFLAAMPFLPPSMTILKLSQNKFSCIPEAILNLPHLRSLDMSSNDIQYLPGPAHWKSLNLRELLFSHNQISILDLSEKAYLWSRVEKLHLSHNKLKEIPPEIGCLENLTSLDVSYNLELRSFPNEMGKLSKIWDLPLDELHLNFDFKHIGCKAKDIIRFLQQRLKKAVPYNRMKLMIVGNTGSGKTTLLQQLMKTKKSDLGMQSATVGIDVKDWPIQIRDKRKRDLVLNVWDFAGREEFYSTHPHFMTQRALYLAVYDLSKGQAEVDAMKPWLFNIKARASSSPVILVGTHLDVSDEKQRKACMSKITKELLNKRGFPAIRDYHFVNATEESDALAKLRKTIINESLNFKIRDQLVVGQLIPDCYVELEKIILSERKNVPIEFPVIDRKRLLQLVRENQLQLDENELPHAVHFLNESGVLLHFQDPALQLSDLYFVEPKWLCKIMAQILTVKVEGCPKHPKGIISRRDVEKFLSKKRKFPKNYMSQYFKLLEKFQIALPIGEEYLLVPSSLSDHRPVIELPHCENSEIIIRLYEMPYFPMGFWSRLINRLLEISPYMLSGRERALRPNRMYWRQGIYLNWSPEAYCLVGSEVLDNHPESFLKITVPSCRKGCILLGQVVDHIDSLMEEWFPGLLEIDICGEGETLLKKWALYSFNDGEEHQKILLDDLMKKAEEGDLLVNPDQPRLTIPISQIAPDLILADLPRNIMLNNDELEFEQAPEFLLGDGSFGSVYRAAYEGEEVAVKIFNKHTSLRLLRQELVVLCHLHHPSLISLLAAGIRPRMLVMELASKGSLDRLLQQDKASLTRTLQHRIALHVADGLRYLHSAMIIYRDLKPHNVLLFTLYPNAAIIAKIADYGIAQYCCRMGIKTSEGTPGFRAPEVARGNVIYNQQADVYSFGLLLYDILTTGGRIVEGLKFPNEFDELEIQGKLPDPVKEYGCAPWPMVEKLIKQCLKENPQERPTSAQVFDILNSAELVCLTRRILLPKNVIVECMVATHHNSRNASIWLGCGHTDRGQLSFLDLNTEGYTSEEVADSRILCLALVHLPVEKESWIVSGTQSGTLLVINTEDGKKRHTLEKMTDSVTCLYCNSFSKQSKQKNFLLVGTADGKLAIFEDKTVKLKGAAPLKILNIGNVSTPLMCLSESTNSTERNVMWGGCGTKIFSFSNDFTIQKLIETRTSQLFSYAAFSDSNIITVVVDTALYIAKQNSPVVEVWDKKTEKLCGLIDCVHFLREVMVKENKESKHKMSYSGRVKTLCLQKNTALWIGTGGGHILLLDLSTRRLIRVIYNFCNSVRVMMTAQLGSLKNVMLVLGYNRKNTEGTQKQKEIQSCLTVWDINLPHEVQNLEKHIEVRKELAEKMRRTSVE
Method in brief: as §1

[5] = target: T4, NUAK1 (Homo sapiens, UniProt O60285)
T4 sequence (O60285 1-661): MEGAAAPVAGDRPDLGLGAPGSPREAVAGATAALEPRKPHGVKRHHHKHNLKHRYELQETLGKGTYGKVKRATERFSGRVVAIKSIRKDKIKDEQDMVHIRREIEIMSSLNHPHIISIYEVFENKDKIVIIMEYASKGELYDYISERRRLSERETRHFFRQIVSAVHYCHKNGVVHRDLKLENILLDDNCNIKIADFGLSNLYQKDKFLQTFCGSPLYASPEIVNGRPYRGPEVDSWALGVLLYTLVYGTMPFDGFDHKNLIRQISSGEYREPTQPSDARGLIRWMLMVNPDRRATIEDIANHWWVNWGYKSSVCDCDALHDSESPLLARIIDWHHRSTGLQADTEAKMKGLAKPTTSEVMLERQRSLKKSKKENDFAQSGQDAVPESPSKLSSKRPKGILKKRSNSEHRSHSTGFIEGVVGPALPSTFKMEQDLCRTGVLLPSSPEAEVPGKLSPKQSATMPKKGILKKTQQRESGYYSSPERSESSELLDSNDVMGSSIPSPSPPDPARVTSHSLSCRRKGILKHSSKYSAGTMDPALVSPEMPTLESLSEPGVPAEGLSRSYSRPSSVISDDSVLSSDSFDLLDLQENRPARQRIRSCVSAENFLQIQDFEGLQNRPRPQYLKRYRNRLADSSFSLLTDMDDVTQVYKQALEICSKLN
Method in brief: as §1

[6] = target: PRKAA2/AMPK221 (Homo sapiens, UniProt P54646)
Method in brief: as §1

[7] = target: T5, STK10/LOK (Homo sapiens, UniProt O94804)
T5 construct: AssayQuant Technologies, Inc. (contract assay)
T5 sequence (O94804 whole entry): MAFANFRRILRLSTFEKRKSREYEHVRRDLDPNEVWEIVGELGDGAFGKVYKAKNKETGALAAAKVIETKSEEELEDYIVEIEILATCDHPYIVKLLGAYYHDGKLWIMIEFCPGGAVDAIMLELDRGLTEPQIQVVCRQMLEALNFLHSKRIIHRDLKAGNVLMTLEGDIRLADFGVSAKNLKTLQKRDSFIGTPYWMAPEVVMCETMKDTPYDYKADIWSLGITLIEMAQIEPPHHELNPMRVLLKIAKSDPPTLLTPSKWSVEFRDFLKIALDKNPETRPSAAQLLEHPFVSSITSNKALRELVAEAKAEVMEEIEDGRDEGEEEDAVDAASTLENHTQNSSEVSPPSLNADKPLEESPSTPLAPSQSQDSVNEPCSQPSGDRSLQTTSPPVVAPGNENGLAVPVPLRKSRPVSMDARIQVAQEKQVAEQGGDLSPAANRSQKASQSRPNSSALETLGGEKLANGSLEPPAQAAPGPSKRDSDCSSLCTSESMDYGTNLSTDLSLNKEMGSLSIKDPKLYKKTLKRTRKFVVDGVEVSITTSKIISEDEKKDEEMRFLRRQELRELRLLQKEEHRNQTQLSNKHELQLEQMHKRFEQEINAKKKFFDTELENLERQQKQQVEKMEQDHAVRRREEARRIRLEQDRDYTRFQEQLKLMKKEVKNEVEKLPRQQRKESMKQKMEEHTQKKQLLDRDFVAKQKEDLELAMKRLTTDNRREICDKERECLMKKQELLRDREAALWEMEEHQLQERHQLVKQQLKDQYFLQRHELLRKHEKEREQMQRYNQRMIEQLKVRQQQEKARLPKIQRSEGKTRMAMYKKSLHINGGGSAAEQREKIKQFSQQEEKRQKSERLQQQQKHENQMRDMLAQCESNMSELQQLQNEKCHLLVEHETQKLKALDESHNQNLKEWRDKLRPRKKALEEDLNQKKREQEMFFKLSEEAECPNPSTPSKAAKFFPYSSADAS
Method in brief: as §1

[8] = target: T6, TSSK2 (Homo sapiens, UniProt Q96PF2)
T6 construct: AssayQuant Technologies, Inc. (contract laboratory that ran the panel)
T6 sequence (Q96PF2 1-358): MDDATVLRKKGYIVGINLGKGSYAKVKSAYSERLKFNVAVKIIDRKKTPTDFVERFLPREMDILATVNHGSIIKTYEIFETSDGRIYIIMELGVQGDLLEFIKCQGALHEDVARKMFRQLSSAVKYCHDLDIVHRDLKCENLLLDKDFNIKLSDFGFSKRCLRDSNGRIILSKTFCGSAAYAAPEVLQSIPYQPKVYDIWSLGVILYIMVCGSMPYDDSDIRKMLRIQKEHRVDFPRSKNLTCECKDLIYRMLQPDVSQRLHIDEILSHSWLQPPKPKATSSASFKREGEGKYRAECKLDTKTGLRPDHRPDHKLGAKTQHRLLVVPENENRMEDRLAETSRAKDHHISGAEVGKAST
Method in brief: as §1

## C=CC(=O)N1CCCC(c2c(F)cc(C(N)=O)c3[nH]c4c(c23)CCCCC4)C1 (single isomer, unassigned) [Compound 5-6]
[1]
  inhibition at 1 µM: -6.3%
[2]
  inhibition at 1 µM: 6.8%
[3]
  inhibition at 1 µM: -24.7%
[4]
  inhibition at 1 µM: -8.9%
[5]
  inhibition at 1 µM: 3.8%
[6]
  inhibition at 1 µM: -17.9%
[7]
  inhibition at 1 µM: 3.1%
[8]
  inhibition at 1 µM: 10.2%

## C=CC(=O)N1CCC[C@@H](c2c(F)cc(C(N)=O)c3[nH]c4c(c23)CC2(CC4)CC2)C1 [Compound 6-2, (S)-5-(1-acryloylpiperidin-3-yl)-6-fluoro-1,2,4,9-tetrahydrospiro[carbazole-3,1′-cyclopropane]-8-carboxamide]
[1]
  inhibition at 1 µM: 5.6%
[2]
  inhibition at 1 µM: 2.8%
[3]
  inhibition at 1 µM: 10.1%
[4]
  inhibition at 1 µM: -2.7%
[5]
  inhibition at 1 µM: 13.2%
[6]
  inhibition at 1 µM: 11.7%
[7]
  inhibition at 1 µM: 12.2%
[8]
  inhibition at 1 µM: 22.9%

## C=CC(=O)N1CCC[C@@H](c2c(F)cc(C(N)=O)c3[nH]c4c(c23)CCC4)C1 [Compound 10-2, (S)-8-(1-acryloylpiperidin-3-yl)-7-fluoro-1,2,3,4-tetrahydrocyclo-penta[b]indole-5-carboxamide]
[1]
  inhibition at 1 µM: 2.3%
[2]
  inhibition at 1 µM: -5.8%
[3]
  inhibition at 1 µM: 22.9%
[4]
  inhibition at 1 µM: -7.2%
[5]
  inhibition at 1 µM: -9.3%
[6]
  inhibition at 1 µM: 32.1%
[7]
  inhibition at 1 µM: -8.7%
[8]
  inhibition at 1 µM: 25.3%
